# According to patent publication US20050049278A1, “Benzo[1,3]dioxole compounds, pharmaceutical compositions thereof, and processes of making and using the same” (priority 2003, published 2005):
# Read-outs that look alike come from different tables or passages of the source.
# Tests used:
# topoisomerase I = target: T1, topoisomerase I (Homo sapiens, UniProt P11387); assay: Topoisomerase I assay (supercoiled pBluescript DNA, agarose gel); format: biochemical; conditions: in vitro, FIG. 2
# T1 construct: purchased Sigma-Aldrich
# T1 sequence (P11387 1-765): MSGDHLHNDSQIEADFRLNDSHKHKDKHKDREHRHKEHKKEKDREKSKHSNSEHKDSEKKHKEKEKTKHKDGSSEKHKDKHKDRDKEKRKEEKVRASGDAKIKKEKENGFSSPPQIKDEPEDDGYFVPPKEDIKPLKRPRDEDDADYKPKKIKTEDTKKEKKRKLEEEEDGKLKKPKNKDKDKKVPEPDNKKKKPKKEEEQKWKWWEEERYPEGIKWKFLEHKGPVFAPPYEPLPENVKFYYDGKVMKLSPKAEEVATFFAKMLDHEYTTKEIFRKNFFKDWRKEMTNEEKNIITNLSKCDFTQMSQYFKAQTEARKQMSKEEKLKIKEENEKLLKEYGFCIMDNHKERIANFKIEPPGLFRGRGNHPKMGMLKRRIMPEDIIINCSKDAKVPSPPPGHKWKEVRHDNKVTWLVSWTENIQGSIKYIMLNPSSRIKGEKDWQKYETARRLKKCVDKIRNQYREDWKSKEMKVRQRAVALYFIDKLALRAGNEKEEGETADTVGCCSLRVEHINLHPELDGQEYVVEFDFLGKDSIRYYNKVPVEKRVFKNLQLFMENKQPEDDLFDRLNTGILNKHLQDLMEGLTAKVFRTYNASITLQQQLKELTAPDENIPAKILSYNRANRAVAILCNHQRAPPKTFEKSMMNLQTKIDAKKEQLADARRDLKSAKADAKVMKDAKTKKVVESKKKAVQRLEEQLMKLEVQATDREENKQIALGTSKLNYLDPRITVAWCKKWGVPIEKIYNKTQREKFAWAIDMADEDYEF
# Experimental: (§1) The ability of compounds that cause S-phase cell cycle arrest to inhibit topoisomerase I and topoisomerase II was examined. Analysis of topoisomerase activity was performed in 20 μl reactions with either topoisomerase I reaction buffer (10 mM TRIS-HCl, pH 7.5; 100 mM NaCl; 1 mM 2-mercaptoethanol) or topoisomerase II reaction buffer (50 mM Tris-HCl, pH 8; 120 mM KCl; 10 mM MgCl2; 0.5 mM dithiothreitol; 0.5 mM ATP; 30 μg BSA/ml) containing 125 ng supercoiled pBluescript DNA and either 2 U topoisomerase I (Sigma-Aldrich) or topoisomerase II (Topogen Inc.). After reaction at 37° C. for 20 minutes, the reactions were terminated through the addition of sodium dodecyl sulfate to 1% w/v and heating to 65° C. for 10 minutes. Proteinase K was then added to 10 μg/ml and digestion was allowed to proceed at 37° C. for 20 minutes before electrophoresis of the DNA in 0.8% agarose gels containing 0.5 μg/ml ethidium bromide for 18 hours at 75V in 0.5×TBE buffer. DNA was then visualized using a UV-transilluminator and the image was captured using a BioRad CCD camera and gel documentation system.
# topoisomerase II = target: T2, topoisomerase II (Homo sapiens, UniProt P11388); assay: Topoisomerase II assay (supercoiled pBluescript DNA, agarose gel); format: biochemical; conditions: in vitro, FIG. 2
# T2 construct: purchased Topogen Inc
# Experimental: as §1, with “Analysis” for “The ability of compounds that cause S-phase cell cycle arrest to inhibit topoisomerase I and topoisomerase II was examined. Analysis”
# HEK293 cells [1] = assay: HEK293 cell viability, CellTiter 96 Aqueous One Solution Cell Proliferation assay; format: cell-based; conditions: Homo sapiens, HEK293, 48 h
# Experimental: The effect of various doses of compounds 5a, 5a,b, and 9a on the viability of HEK293 cells was examined using the CellTiter 96 Aqueous One Solution Cell Proliferation assay (Promega). The HEK293 cells were cultured in DMEM media (Cellgro) or phenol red-free DMEM (Gibco) supplemented with 10% Fetal Bovine Serum (Tissue Culture Biologicals) and 1× Penicillin/Streptomycin/Glutamine (Gibco). The cells were grown at 37° C. with 5% CO2. HEK293 cells were seeded into each well of a 96-well plate (5000 cells/well) and incubated overnight to allow the cells to attach. The culture media was removed and replaced with 100 μl of phenol red-free media containing the compounds 5a, 5a,b, and 9a at various concentrations. The cells were allowed to grow in the presence of the compounds for 48 hrs. At the end of the treatment, 20 μl of CellTiter 96 Aqueous One Solution reagent was added directly into each well, and the cells were incubated at 37° C. for 2 hrs. This reagent converts to a form that absorbs light at 490 nm by living cells. Thus, absorbance at 490 nm is proportional to the number of viable cells. The 490 nm absorbance was measured on a BioRad plate reader. Control wells containing no cells were included in this assay to correct for background absorbance.
# [2] = test system: HTS-tubulin (90% tubulin plus 10% microtubule associated proteins); assay: Microtubule polymerization assay (turbidity at 340 nm); format: biochemical; conditions: absorbance at 340 nm, 30 minutes, 37° C., FIG. 3
# Experimental: Microtubule polymerization assays were performed to determine if compounds, such as compound 9a, cause G2/M cell cycle arrest by affecting microtubule dynamics. A microtubule polymerization assay was performed that takes advantage of the observation that there is an increase in turbidity that can be measured at 340 nm as tubulin heterodimers polymerize to form microtubules. In brief, HTS-tubulin (90% tubulin plus 10% microtubule associated proteins; Cytoskeleton Inc., Denver, Colo.) was resuspended in G-PEM buffer (80 mM Pipes, pH 6.9; 2 mM MgCl2; 0.5 mM EDTA; 1 mM GTP) to 10 mg/ml. This suspension was clarified by centrifugation for 10 min. at 225,000×g. The supernatant was then diluted with G-PEM buffer to 2 mg/ml and 100 μl of this solution was added to the appropriate number of ½-area wells in a 96-well format (Corning). Each compound (10 μl of a 10× final concentration in 10% DMSO) was added to the wells in duplicate and immediately put into a pre-warmed (37° C.) Spectromax 190 plate reader. The absorbance was read at 340 nm immediately (time=0) and every minute thereafter for 30 minutes.
# The tubulin mix was incubated in the presence of paclitaxel (a microtubule stabilizing agent), nocodazole (a microtubule destabilizing agent), vehicle control (DMSO), or varying concentrations of compound 9a (FIG. 3).
# [3] = test system: phytohemagglutinin (PHA)-stimulated peripheral blood lymphocytes (PBLs); assay: Cell cycle analysis on phytohemagglutinin-stimulated peripheral blood lymphocytes; format: cell-based; conditions: PHA-stim. PBL (1 μg/ml PHA), 25 μM, 16 to 24 hrs
# Experimental: (§2) The effects of compounds 5a,b on the cell cycle were further examined on phytohemagglutinin (PHA)-stimulated and non-stimulated peripheral blood lymphocytes (PBLs).
# (§3) PBLs were cultured in DMEM media (Celigro) supplemented with 10% Fetal Bovine Serum (Tissue Culture Biologicals) and 1× Penicillin/Streptomycin/Glutamine (Gibco). The cells were grown at 37° C. with 5% CO2, plated in six-well plates at 2.5-5×10^6 cells/well, and treated for 16 to 24 hrs with the compounds at the concentrations shown in Table 2, below, with or without 1 μg/ml PHA (Sigma). The cells were then triturated off the bottom of the wells, washed 1× with PBS, then fixed with 70% ethanol, and stored at 4° C. before staining and FACS analysis.
# [4] = test system: non-stimulated peripheral blood lymphocytes (PBLs); assay: Cell cycle analysis on non-stimulated peripheral blood lymphocytes; format: cell-based; conditions: PBL (non-stimulated), 25 μM, 16 to 24 hrs
# Experimental: as §2, §3
# HEK293 cells [5] = assay: Cell cycle analysis by FACS of HEK293 cells; format: cell-based; conditions: for Percent of Cells in G1 / Percent of Cells in G2/M / Percent of Cells in S: treated 16 to 24 hrs; for FACS profile / cell cycle effect: HEK293, FACS; for accumulation of cells in G2/M: HEK293, concentrations as in Table 1
# Experimental: Fluorescence-activated cell sorting (FACS) analysis was used to examine the cell cycle state when the cells were incubated with compounds of formula (I) as well as several control compounds, including DMSO, noscapine (a known G2/M inhibitor), and colchicine (a known G2/M inhibitor).
# as §3, with “In particular, HEK293 cells” for “PBLs”, “2.5×10^6” for “2.5-5×10^6”, “1, below.” for “2, below, with or without 1 μg/ml PHA (Sigma).”
# The DNA content of cells was determined using a FacsVantage SE flow cytometry system (Becton Dickinson, San Jose, Calif.) and a Cellular DNA Flow Cytometric Analysis Kit (Roche Applied Science, Indianapolis, Ind.). Cell cycle analysis was performed using Cylchred 1.0.2 software.
# T2 sequence (P11388 whole entry): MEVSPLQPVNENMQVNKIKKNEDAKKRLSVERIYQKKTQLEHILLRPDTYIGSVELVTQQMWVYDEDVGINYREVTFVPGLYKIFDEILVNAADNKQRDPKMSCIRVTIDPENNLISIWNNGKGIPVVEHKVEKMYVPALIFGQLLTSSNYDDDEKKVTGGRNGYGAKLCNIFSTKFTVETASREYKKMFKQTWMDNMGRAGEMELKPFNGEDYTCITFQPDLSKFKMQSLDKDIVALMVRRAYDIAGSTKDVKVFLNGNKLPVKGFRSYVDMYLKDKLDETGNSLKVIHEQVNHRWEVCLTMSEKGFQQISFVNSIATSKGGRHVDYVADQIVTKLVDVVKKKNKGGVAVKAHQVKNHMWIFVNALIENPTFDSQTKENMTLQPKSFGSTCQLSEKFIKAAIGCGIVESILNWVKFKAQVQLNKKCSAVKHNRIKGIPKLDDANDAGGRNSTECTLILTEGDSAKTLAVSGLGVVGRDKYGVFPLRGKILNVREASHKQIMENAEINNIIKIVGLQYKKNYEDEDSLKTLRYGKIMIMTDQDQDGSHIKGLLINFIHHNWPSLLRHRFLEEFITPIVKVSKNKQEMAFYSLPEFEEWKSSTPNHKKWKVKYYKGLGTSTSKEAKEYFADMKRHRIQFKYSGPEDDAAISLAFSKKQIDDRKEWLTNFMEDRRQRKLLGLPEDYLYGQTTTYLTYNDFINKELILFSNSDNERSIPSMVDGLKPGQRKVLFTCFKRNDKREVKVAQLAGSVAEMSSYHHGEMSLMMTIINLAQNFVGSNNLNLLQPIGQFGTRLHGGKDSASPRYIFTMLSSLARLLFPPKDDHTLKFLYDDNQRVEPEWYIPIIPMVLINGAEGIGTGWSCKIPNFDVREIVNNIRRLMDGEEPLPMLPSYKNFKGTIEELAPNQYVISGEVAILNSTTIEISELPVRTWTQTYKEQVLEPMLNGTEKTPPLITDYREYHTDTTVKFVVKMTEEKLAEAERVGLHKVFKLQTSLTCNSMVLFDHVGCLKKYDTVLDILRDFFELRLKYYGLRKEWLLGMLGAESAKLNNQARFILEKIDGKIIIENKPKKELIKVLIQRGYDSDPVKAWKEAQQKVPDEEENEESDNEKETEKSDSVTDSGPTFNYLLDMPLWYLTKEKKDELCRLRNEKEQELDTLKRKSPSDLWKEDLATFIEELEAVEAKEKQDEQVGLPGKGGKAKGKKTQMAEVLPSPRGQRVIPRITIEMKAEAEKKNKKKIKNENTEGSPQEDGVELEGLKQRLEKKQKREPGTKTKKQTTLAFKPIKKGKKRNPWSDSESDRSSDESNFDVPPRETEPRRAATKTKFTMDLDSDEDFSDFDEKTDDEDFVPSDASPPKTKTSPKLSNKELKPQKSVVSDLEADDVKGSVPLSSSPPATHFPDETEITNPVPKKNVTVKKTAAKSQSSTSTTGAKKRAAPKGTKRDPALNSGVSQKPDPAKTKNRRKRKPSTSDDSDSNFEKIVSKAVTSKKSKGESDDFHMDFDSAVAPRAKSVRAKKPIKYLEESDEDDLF
smiles,measurement,setting,value
CC[C@@]1(O)C(=O)OCc2c1cc1n(c2=O)Cc2cc3c(CN(C)C)c(O)ccc3nc2-1 [topotecan],concentrations at which topoisomerase I activity was inhibited,topoisomerase I,below 3 μM
same,inhibition of topoisomerase II activity,topoisomerase II,neither topotecan nor noscapine acts as inhibitors
COc1cc([C@@H]2c3cc4c(cc3[C@@H](O[C@@H]3O[C@@H]5CO[C@@H](C)O[C@H]5[C@H](O)[C@H]3O)[C@H]3COC(=O)[C@H]23)OCO4)cc(OC)c1O [etoposide],inhibition of topoisomerase I activity,topoisomerase I,neither etoposide nor noscapine inhibited
"CC(=O)O[C@H]1C(=O)[C@@]2(C)[C@H]([C@H](OC(=O)c3ccccc3)[C@]3(O)C[C@H](OC(=O)[C@H](O)[C@@H](NC(=O)c4ccccc4)c4ccccc4)C(C)=C1C3(C)C)[C@]1(OC(C)=O)CO[C@@H]1C[C@@H]2O [Paclitaxel, reference compound]",EC50,HEK293 cells [1]; read-out: EC50,< 100 nM
same,effect on microtubule polymerization,[2],increased microtubule polymerization
"COc1cc(COc2c(OC)ccc3c2C(=O)OC3[C@H]2c3c(cc4c(c3OC)OCO4)CCN2C)cc(OC)c1OC (stereo partly shown) [Compound 5a,b]",Percent of Cells in G1,[3],69.3%
same,Percent of Cells in G2/M,[3],5.4%
same,Percent of Cells in S,[3],25.3%
same,EC50,HEK293 cells [1],400 nM
same,EC50,HEK293 cells [1]; text summary,< 1000 nM
same,Percent of Cells in G1,[4],91.6%
same,Percent of Cells in G2/M,[4],1.5%
same,Percent of Cells in S,[4],6.8%
same,Percent of Cells in G1,"HEK293 cells [5]; HEK293, 50 μM",13.1%
same,Percent of Cells in G2/M,"HEK293 cells [5]; HEK293, 50 μM",6.3%
same,Percent of Cells in S,"HEK293 cells [5]; HEK293, 50 μM",80.7%
same,FACS profile / cell cycle effect,HEK293 cells [5],"accumulate more cells in S-phase than 6a,b"
"COc1cc2c(c(OC)c1OC)-c1ccc(OC)c(=O)cc1[C@@H](NC(C)=O)CC2 [colchicine, reference compound]",Percent of Cells in G1,"HEK293 cells [5]; HEK293, 10 μM",2.7%
same,Percent of Cells in G2/M,"HEK293 cells [5]; HEK293, 10 μM",83.4%
same,Percent of Cells in S,"HEK293 cells [5]; HEK293, 10 μM",13.9%
"COc1ccc2c(c1C#N)C(=O)O[C@@H]2[C@H]1c2c(cc3c(c2OC)OCO3)CCN1C [Compound 10, 5-methoxy-1-(4-methoxy-6-methyl-5,6,7,8-tetrahydro-[1,3]dioxolo-[4,5-g]isoguinolin-5-yl)-3-oxo-1,3-dihydro-isobenzofuran-4-carbonitrile]",Percent of Cells in G1,"HEK293 cells [5]; HEK293, 50 μM",2%
same,Percent of Cells in G2/M,"HEK293 cells [5]; HEK293, 50 μM",89.2%
same,Percent of Cells in S,"HEK293 cells [5]; HEK293, 50 μM",8.8%
same,accumulation of cells in G2/M,HEK293 cells [5],~90%
"COc1ccc2c(c1OCc1ccccc1)C(=O)OC2[C@H]1c2c(cc3c(c2OC)OCO3)CCN1C (stereo partly shown) [6a,b]",Percent of Cells in G1,"HEK293 cells [5]; HEK293, 50 μM",12.1%
same,Percent of Cells in G2/M,"HEK293 cells [5]; HEK293, 50 μM",16.7%
same,Percent of Cells in S,"HEK293 cells [5]; HEK293, 50 μM",71.2%
same,FACS profile / cell cycle effect,HEK293 cells [5],accumulating in S-phase
"COC(=O)Nc1nc2ccc(C(=O)c3cccs3)cc2[nH]1 [Nocodazole, reference compound]",EC50,HEK293 cells [1]; read-out: EC50,< 20 nM
same,effect on microtubule polymerization,[2],decreased microtubule polymerization
COc1ccc2c(c1S)C(=O)O[C@@H]2[C@H]1c2c(cc3c(c2OC)OCO3)CCN1C [Compound 13],Percent of Cells in G1,"HEK293 cells [5]; HEK293, 5 μM",3.2%
same,Percent of Cells in G2/M,"HEK293 cells [5]; HEK293, 5 μM",89.6%
same,Percent of Cells in S,"HEK293 cells [5]; HEK293, 5 μM",7.2%
same,accumulation of cells in G2/M,HEK293 cells [5],~90%
COc1cc(COc2c(OC)ccc3c2C(=O)O[C@@H]3[C@H]2c3c(cc4c(c3OC)OCO4)CCN2C)cc(OC)c1OC [Compound 5a],EC50,HEK293 cells [1]; read-out: EC50,300 nM
same,EC50,"HEK293 cells [1]; text summary, read-out: EC50",< 1000 nM
COc1ccc2c(c1)C(=O)O[C@@H]2[C@H]1c2c(cc3c(c2OC)OCO3)CCN1C [Compound 12],Percent of Cells in G1,"HEK293 cells [5]; HEK293, 1 μM",3.8%
same,Percent of Cells in G2/M,"HEK293 cells [5]; HEK293, 1 μM",89.8%
same,Percent of Cells in S,"HEK293 cells [5]; HEK293, 1 μM",6.4%
same,accumulation of cells in G2/M,HEK293 cells [5],~90%
